Like-named read-outs stand apart in the source and are kept apart here.
What was measured:
[1] = tested on: methicillin resistant Staphylococcus aureus K24; assay: Enhancing effect for activity of imipenem by paper disk method; conditions: for diameter of inhibition zone in the presence of imipenem / diameter of inhibition zone, stemphone alone: 5 μg disc, 37° C., 20 hours; for diameter of inhibition zone in the presence of imipenem: MHA medium with imipenem 10 μg/ml; for diameter of inhibition zone, stemphone alone: MHA medium without imipenem
[2] = tested on: Micrococcus luteus KB212 (ATCC9341); assay: Antimicrobial action, paper disc method; format: cell-based; conditions: 5 μg/disc, disc diameter 6 mm, 37° C., 24 hours
[3] = tested on: Stapylococcus aureus KB210 (ATCC6538p); assay: Antimicrobial action, paper disc method; format: cell-based; conditions: 5 μg/disc, disc diameter 6 mm, 37° C., 24 hours
[4] = tested on: Acholeplasma laidlawii KB174; assay: Antimicrobial action, paper disc method; format: cell-based; conditions: 5 μg/disc, disc diameter 6 mm, 37° C., 24 hours
[5] = tested on: Bacillus subtilis KB211 (PCI 219); assay: Antimicrobial action, paper disc method; format: cell-based; conditions: 5 μg/disc, disc diameter 6 mm, 37° C., 24 hours
MRSA = assay: Enhancing activity against various antimicrobial agents by broth microdilution method (MIC); format: cell-based, Staphylococcus aureus; conditions: for Ratio (−/+stemphone C) of MIC: MIC alone / MIC with stemphone C 16 μg/ml, fold enhancement; for MIC: Staphylococcus aureus, MRSA, read-out: MIC, antibacterial agent alone (−); for MIC, +stemphone C: in combination with stemphone C 16 μg/ml
[6] = without stemphone C, 37° C., 20 hours

Compound: C/C=C(\C)C(OC(C)=O)C(C)C1=CC(=O)C2=C(OC3(C)CCC4OC(C(C)(C)O)CC(O)C4(C)C3C2O)C1=O (centres unmarked) [Stemphone B]
- diameter of inhibition zone in the presence of imipenem [1]: 15 mm
- diameter of inhibition zone, stemphone alone [1]: not observed
- zone of inhibition at 5 µg/disc [2]: 14 mm
- zone of inhibition at 5 µg/disc [3]: 8 mm
- zone of inhibition at 5 µg/disc [4]: 10 mm
- zone of inhibition at 5 µg/disc [5]: 10 mm

Compound: C/C=C(\C)C(OC(C)=O)C(C)C1=CC(=O)C2=C(OC3(C)CCC4OC(C(C)(C)O)CCC4(C)C3C2)C1=O (centres unmarked) [Stemphone C]
- diameter of inhibition zone in the presence of imipenem [1]: 20 mm
- diameter of inhibition zone, stemphone alone [1]: not observed
- enhancing activity for imipenem ([1]; paper disk method, in words): strong enhancing activity
- zone of inhibition at 5 µg/disc [2]: 14 mm
- zone of inhibition at 5 µg/disc [3]: 8 mm
- effect of stemphone C itself on growth of test organism (MRSA; final concentration 16 μg/ml): did not affect growth
- zone of inhibition at 5 µg/disc [4]: 9 mm
- zone of inhibition at 5 µg/disc [5]: 9 mm

Compound: Cc1nnc(SCC2=C(C(=O)O)N3C(=O)[C@@H](NC(=O)Cn4cnnn4)[C@H]3SC2)s1 [cefazolin]
- Ratio (−/+stemphone C) of MIC (MRSA): 16
- MIC (MRSA; [6]): 64 µg/mL
- MIC, +stemphone C (MRSA; 37° C., 20 hours): 4 µg/mL

Compound: Cc1onc(-c2ccccc2Cl)c1C(=O)N[C@@H]1C(=O)N2[C@@H]1SC(C)(C)[C@@H]2C(=O)O [cloxacillin]
- Ratio (−/+stemphone C) of MIC (MRSA): 512
- MIC (MRSA; [6]): 512 µg/mL
- MIC, +stemphone C (MRSA; 37° C., 20 hours): 1 µg/mL

Compound: C[C@@H](O)[C@H]1C(=O)N2C(C(=O)O)=C(SCCN=CN)C[C@H]12 [imipenem]
- Ratio (−/+stemphone C) of MIC (MRSA): 512
- MIC (MRSA; [6]): 16 µg/mL
- MIC, +stemphone C (MRSA; 37° C., 20 hours): 0.03 µg/mL

Compound: [H]/N=C(/N)N[C@H]1[C@H](O)[C@@H](O)[C@H](O[C@@H]2O[C@@H](C)[C@](O)(C=O)[C@H]2O[C@@H]2O[C@@H](CO)[C@H](O)[C@@H](O)[C@@H]2NC)[C@@H](N/C(N)=N\[H])[C@@H]1O [streptomycin]
- Ratio (−/+stemphone C) of MIC (MRSA): 4
- MIC (MRSA; [6]): 2 µg/mL
- MIC, +stemphone C (MRSA; 37° C., 20 hours): 0.5 µg/mL

Compound: CN(C)[C@@H]1C(O)=C(C(N)=O)C(=O)[C@@]2(O)C(O)=C3C(=O)c4c(O)cccc4[C@@](C)(O)[C@H]3C[C@@H]12 [tetracycline]
- Ratio (−/+stemphone C) of MIC (MRSA): 1
- MIC (MRSA; [6]): 32 µg/mL
- MIC, +stemphone C (MRSA; 37° C., 20 hours): 32 µg/mL

Compound: CN[C@H](CC(C)C)C(=O)N[C@H]1C(=O)N[C@@H](CC(N)=O)C(=O)N[C@H]2C(=O)N[C@H]3C(=O)N[C@H](C(=O)N[C@H](C(=O)O)c4cc(O)cc(O)c4-c4cc3ccc4O)[C@H](O)c3ccc(c(Cl)c3)Oc3cc2cc(c3O[C@@H]2O[C@H](CO)[C@@H](O)[C@H](O)[C@H]2O[C@H]2C[C@](C)(N)[C@H](O)[C@H](C)O2)Oc2ccc(cc2Cl)[C@H]1O [vancomycin]
- Ratio (−/+stemphone C) of MIC (MRSA): 1
- MIC (MRSA; 20 h): 0.5 µg/mL
- MIC, +stemphone C (MRSA; 37° C., 20 hours): 0.5 µg/mL

Source: patent US7794991B2, “Stemphones and production thereof” (The Kitasato Institute, priority 2005, dated 2010)
